Test results reported in patent US11000033B2, “Ketone or oxime compound, and herbicide” (NISSAN CHEMICAL CORPORATION, priority 2014, dated 2021).

Experiments:
Type in all cases: in vivo
Amaranthus retroflexus = experiment: Test Example 5: herbicidal effect by foliage application, plastic box (symbol N); settings: 320 g/ha, 3 weeks after application
Method in brief: (§1)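 Effect is rated 3 weeks after a foliar spray of water-diluted emulsion concentrate at a predetermined herbicide amount. Plants had grown 14 days in a 25° C. to 30° C. greenhouse from seed in sterilized diluvial soil.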

wheat [1] = experiment: Test Example 4: effect on crop by soil treatment (symbol e); settings: application herbicide amount 320 g/ha
Method in brief: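 Greenhouse culture at 25° C. to 30° C. followed sowing of seed in spots on sterilized diluvial soil with a soil cover close to 1.5 cm thick.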

beet = experiment: Test Example 5: effect on crop by foliage application, plastic box (symbol f); settings: 320 g/ha, 3 weeks after application
Method in brief: (§2)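 Box culture: sterile diluvial soil, seeds spot-sown, ~1.5 cm cover, raised under glass at 25–30° C.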

corn = experiment: Test Example 5: effect on crop by foliage application, plastic box (symbol c); settings: 320 g/ha, 3 weeks after application
Method in brief: as §2

rice plant = experiment: Test Example 5: effect on crop by foliage application, plastic box (symbol b); settings: 320 g/ha, 3 weeks after application
Method in brief: as §2

[2] = tested on: Echinochloa oryzacola Vasing.; experiment: Test Example 1: herbicidal activity, application before weed generation in submerged conditions (symbol A); settings: application herbicide amount 320 g/ha
Method in brief: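 Ratings (5: ≥90%, near complete withering; 4: 70–<90%; 3: 40–<70%; 2: 20–<40%; 1: 5–<20%; 0: ≤5%) were assigned 3 weeks after the diluted emulsion was applied to the water surface of freshly sown, submerged pots.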

[3] = tested on: Echinochloa crus-galli var. crus-galli; experiment: Test Example 3: herbicidal effect by foliage application, Wagner pot (symbol H); settings: application herbicide amount 320 g/ha
Method in brief: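 Post-emergence, paddy-type test: seedlings 14 d old in shallow-flooded (0.1–0.5 cm) alluvial soil, 25–30 °C greenhouse. Emulsion diluted to target rate, sprayed on leaves. Read-out: visual effect on each species at 3 weeks, per set criteria.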

Stellaria media = experiment: Test Example 5: herbicidal effect by foliage application, plastic box (symbol P); settings: 320 g/ha, 3 weeks after application
Method in brief: as §1

transplanted rice plant = experiment: Test Example 1: effect on crop, application before weed generation in submerged conditions (symbol a); settings: application herbicide amount 320 g/ha
Method in brief: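 Alluvial soil pots flooded to 4 cm water, sown with Echinochloa oryzacola, Scirpus juncoides and Monochoria vaginalis, then transplanted with 2.5 leaf stage rice seedlings; pre-emergence application. Greenhouse 25° C. to 30° C.; scored 0–5 by herbicidal ratio 3 weeks after application.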

Alopecurus myosuroides = experiment: Test Example 5: herbicidal effect by foliage application, plastic box (symbol J); settings: 320 g/ha, 3 weeks after application
Method in brief: as §1

Scirpus juncoides = experiment: Test Example 2: herbicidal activity, application during weed generation in submerged conditions (symbol B); settings: Table 23; application herbicide amount 320 g/ha; grade 0-5 by criteria of Test Example 1
Method in brief: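 Steps: fill pots with alluvial soil; add water to 4 cm depth; co-sow the three weeds; grow at 25° C. to 30° C. under glass; at 1–2 leaves, dose the floodwater with diluted emulsion; rate damage visually after 3 weeks.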

wheat [4] = experiment: Test Example 5: effect on crop by foliage application, plastic box (symbol e); settings: 320 g/ha, 3 weeks after application
Method in brief: as §2

[5] = tested on: directly sowed rice plant; experiment: Test Example 3: effect on crop by foliage application, Wagner pot (symbol b); settings: application herbicide amount 320 g/ha
Method in brief: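 Plants are raised from seed in flooded paddy conditions: water stands 0.1–0.5 cm over alluvial soil, and the pot is kept in a greenhouse at 25–30 °C. Species sown are barnyardgrass (E. crus-galli var. crus-galli), Leptochloa chinensis, Cyperus difformis and rice.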

Row | SMILES | N: Amaranthus retroflexus, herbicidal effect grade (Amaranthus retroflexus) | e (wheat) effect on crop grade (wheat [1]) | f: beet, effect on crop grade (beet) | c: corn, effect on crop grade (corn) | b: directly sowed rice plant, effect on crop grade (rice plant) | Herbicidal effect grade, A: Echinochloa oryzacola Vasing. [2] | herbicidal effect on H (Echinochloa crus-galli var. crus-galli), grade 0-5 [3] | P: Stellaria media, herbicidal effect grade (Stellaria media) | Effect grade on crop, a: transplanted rice plant (transplanted rice plant) | J: Alopecurus myosuroides, herbicidal effect grade (Alopecurus myosuroides) | Herbicidal effect grade, B: Scirpus juncoides (Scirpus juncoides) | e: wheat, effect on crop grade (wheat [4]) | effect on crop b (directly sowed rice plant), grade 0-5 [5]
1 | CON=C(C)CC1CC(OC(=O)C(C)(C)Oc2ccc(Cl)cc2)=C(c2c(C)cc(C)cc2C)C1=O (stereo not drawn) [1-051] | 1 (Herbicidal ratio of 5% or higher and lower than 20%) | 2 (Herbicidal ratio of 20% or higher and lower than 40%) | 0 (Herbicidal ratio of 5% or lower (almost no effect)) | 5 (Herbicidal ratio of 90% or more (almost completely withered)) | 5 (Herbicidal ratio of 90% or more (almost completely withered)) | 5 (Herbicidal ratio of 90% or more (almost completely withered)) | 5 (Herbicidal ratio of 90% or more (almost completely withered)) | 3 (Herbicidal ratio of 40% or higher and lower than 70%) | 5 (Herbicidal ratio of 90% or more (almost completely withered)) | 5 (Herbicidal ratio of 90% or more (almost completely withered)) | 5 (Herbicidal ratio of 90% or more (almost completely withered)) | 5 (Herbicidal ratio of 90% or more (almost completely withered)) | 5 (Herbicidal ratio of 90% or more (almost completely withered))
2 | CC(CC1CC(O)=C(c2c(C)cc(C)cc2C)C1=O)=NOC(C)C (stereo not drawn) [1-052] | 0 (Herbicidal ratio of 5% or lower (almost no effect)) | 5 (Herbicidal ratio of 90% or more (almost completely withered)) | 0 (Herbicidal ratio of 5% or lower (almost no effect)) | 4 (Herbicidal ratio of 70% or higher and lower than 90%) | 5 (Herbicidal ratio of 90% or more (almost completely withered)) | 5 (Herbicidal ratio of 90% or more (almost completely withered)) | 5 (Herbicidal ratio of 90% or more (almost completely withered)) | 0 (Herbicidal ratio of 5% or lower (almost no effect)) | 5 (Herbicidal ratio of 90% or more (almost completely withered)) | 5 (Herbicidal ratio of 90% or more (almost completely withered)) | 2 (Herbicidal ratio of 20% or higher and lower than 40%) | 5 (Herbicidal ratio of 90% or more (almost completely withered)) | 5 (Herbicidal ratio of 90% or more (almost completely withered))
3 | CC(CC1CC(O)=C(c2c(C)cc(C)cc2C)C1=O)=NOC(C)(C)C (stereo not drawn) [1-053] | 0 (Herbicidal ratio of 5% or lower (almost no effect)) | 0 (Herbicidal ratio of 5% or lower (almost no effect)) | 0 (Herbicidal ratio of 5% or lower (almost no effect)) | 3 (Herbicidal ratio of 40% or higher and lower than 70%) | 5 (Herbicidal ratio of 90% or more (almost completely withered)) | 5 (Herbicidal ratio of 90% or more (almost completely withered)) | 5 (Herbicidal ratio of 90% or more (almost completely withered)) | 0 (Herbicidal ratio of 5% or lower (almost no effect)) | 5 (Herbicidal ratio of 90% or more (almost completely withered)) | 4 (Herbicidal ratio of 70% or higher and lower than 90%) | 0 (Herbicidal ratio of 5% or lower (almost no effect)) | 0 (Herbicidal ratio of 5% or lower (almost no effect)) | 5 (Herbicidal ratio of 90% or more (almost completely withered))
4 | CCCCCCCON=C(C)CC1CC(O)=C(c2c(C)cc(C)cc2C)C1=O (stereo not drawn) [1-054] | 0 (Herbicidal ratio of 5% or lower (almost no effect)) | 0 (Herbicidal ratio of 5% or lower (almost no effect)) | 0 (Herbicidal ratio of 5% or lower (almost no effect)) | 0 (Herbicidal ratio of 5% or lower (almost no effect)) | 4 (Herbicidal ratio of 70% or higher and lower than 90%) | 5 (Herbicidal ratio of 90% or more (almost completely withered)) | 5 (Herbicidal ratio of 90% or more (almost completely withered)) | 0 (Herbicidal ratio of 5% or lower (almost no effect)) | 5 (Herbicidal ratio of 90% or more (almost completely withered)) | 4 (Herbicidal ratio of 70% or higher and lower than 90%) | 0 (Herbicidal ratio of 5% or lower (almost no effect)) | 0 (Herbicidal ratio of 5% or lower (almost no effect)) | 5 (Herbicidal ratio of 90% or more (almost completely withered))
5 | CC(CC1CC(O)=C(c2c(C)cc(C)cc2C)C1=O)=NOCC[Si](C)(C)C (stereo not drawn) [1-055] | 0 (Herbicidal ratio of 5% or lower (almost no effect)) | 0 (Herbicidal ratio of 5% or lower (almost no effect)) | 0 (Herbicidal ratio of 5% or lower (almost no effect)) | 3 (Herbicidal ratio of 40% or higher and lower than 70%) | 5 (Herbicidal ratio of 90% or more (almost completely withered)) | 5 (Herbicidal ratio of 90% or more (almost completely withered)) | 5 (Herbicidal ratio of 90% or more (almost completely withered)) | 0 (Herbicidal ratio of 5% or lower (almost no effect)) | 5 (Herbicidal ratio of 90% or more (almost completely withered)) | 4 (Herbicidal ratio of 70% or higher and lower than 90%) | 0 (Herbicidal ratio of 5% or lower (almost no effect)) | 0 (Herbicidal ratio of 5% or lower (almost no effect)) | 5 (Herbicidal ratio of 90% or more (almost completely withered))
6 | CC(CC1CC(O)=C(c2c(C)cc(C)cc2C)C1=O)=NOCC=CCl (stereo not drawn) [1-056] | 2 (Herbicidal ratio of 20% or higher and lower than 40%) | 5 (Herbicidal ratio of 90% or more (almost completely withered)) | 0 (Herbicidal ratio of 5% or lower (almost no effect)) | 4 (Herbicidal ratio of 70% or higher and lower than 90%) | 5 (Herbicidal ratio of 90% or more (almost completely withered)) | 5 (Herbicidal ratio of 90% or more (almost completely withered)) | 5 (Herbicidal ratio of 90% or more (almost completely withered)) | 0 (Herbicidal ratio of 5% or lower (almost no effect)) | 5 (Herbicidal ratio of 90% or more (almost completely withered)) | 5 (Herbicidal ratio of 90% or more (almost completely withered)) | 5 (Herbicidal ratio of 90% or more (almost completely withered)) | 5 (Herbicidal ratio of 90% or more (almost completely withered)) | 5 (Herbicidal ratio of 90% or more (almost completely withered))
